According to patent publication US8680102B2, “Pyrrole derivatives, their preparation and their therapeutic application” (Sanofi, priority 2008, dated 2014):

What was measured:
[1] = biological target: T1, CB1 receptors present at the periphery (Mus musculus, UniProt P47746); assay: blocking of the inhibitory effect of CP55940 on the gastrointestinal transit; assay type: in vivo; conditions: po route at 10 mg/kg, mice
T1 construct: from tissue; host or cells: whole mouse, in vivo (peripheral / gastrointestinal CB1)
T1 sequence (P47746 whole entry): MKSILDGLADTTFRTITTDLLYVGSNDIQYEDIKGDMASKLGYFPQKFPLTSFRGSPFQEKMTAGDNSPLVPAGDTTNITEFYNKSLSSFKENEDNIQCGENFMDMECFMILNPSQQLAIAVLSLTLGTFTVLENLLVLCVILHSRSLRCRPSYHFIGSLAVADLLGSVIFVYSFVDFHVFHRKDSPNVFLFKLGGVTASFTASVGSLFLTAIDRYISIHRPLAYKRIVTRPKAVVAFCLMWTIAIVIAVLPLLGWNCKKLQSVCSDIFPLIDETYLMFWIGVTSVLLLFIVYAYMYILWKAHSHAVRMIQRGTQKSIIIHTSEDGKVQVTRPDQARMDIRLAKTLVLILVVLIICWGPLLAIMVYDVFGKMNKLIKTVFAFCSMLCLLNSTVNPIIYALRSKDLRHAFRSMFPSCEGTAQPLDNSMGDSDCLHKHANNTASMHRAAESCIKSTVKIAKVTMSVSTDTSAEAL
Experimental: A percentage reversion of the effect of CP55940 greater than 50% at 10 mg/kg indicates a significant antagonist power at the level of the CB1 receptors present at the periphery.

[2] = biological target: T2, CB1 receptors present in the brain (Mus musculus, UniProt P47746); assay: Measurement (3): blocking of the hypothermic effect induced by CP55940; assay type: in vivo; set-up: from tissue; host or cells: whole animal, in vivo (brain CB1); conditions: iv route at 10 mg/kg
T2 sequence (P47746 whole entry): as above

[3] = biological target: T2, CB1 receptors present in the brain; assay: Measurement (2): ex vivo test of binding of [3H]-CP55940 in the brain; set-up: the CB1 receptors present in the brain in mice; from tissue; host or cells: mouse brain, after intravenous administration; conditions: iv route at 10 mg/kg, mice
[4] = Measurement (1): quantification of compound in brain and plasma by LC-MS/MS; assay type: in vivo; conditions: iv route at 3 mg/kg, mouse, read-out: Ratio: Quantity present in the brain / Quantity present in the plasma

Row | SMILES | % reversion of the effect of CP55940 on the GIT [1] [%] | % reversion of the hypothermic effect of CP55940 [2] [%] | inhibition at 10 mg/kg [3] [%] | Kp [4]
1 | NC(=O)C1(c2ccccc2)CCN(C(=O)c2cc(-c3ccc(Cl)cc3Cl)n(-c3ccc(Cl)cc3)c2CCCCO)CC1 [compound 13, 1-{[1-(4-chlorophenyl)-5-(2,4-dichlorophenyl)-2-(4-hydroxybutyl)-1H-pyrrol-3-yl]carbonyl}-4-phenylpiperidine-4-carboxamide] | 100 | 58 | 5 | –
2 | NC(=O)C1(c2ccc(Cl)cc2)CCN(C(=O)c2cc(-c3ccc(Cl)cc3Cl)n(-c3ccc(Cl)cc3)c2CCCO)CC1 [compound 30, 4-(4-chlorophenyl)-1-{[1-(4-chlorophenyl)-5-(2,4-dichlorophenyl)-2-(3-hydroxypropyl)-1H-pyrrol-3-yl]carbonyl}piperidine-4-carboxamide] | 74 | 32 | 21 | 0.06
3 | NC(=O)C1(N2CCC(F)(F)CC2)CCN(C(=O)c2cc(-c3ccc(Cl)cc3Cl)n(-c3ccc(Cl)cc3)c2CCCCO)CC1 [compound 17, 1′-{[1-(4-chlorophenyl)-5-(2,4-dichlorophenyl)-2-(4-hydroxybutyl)-1H-pyrrol-3-yl]carbonyl}-4,4-difluoro-1,4′-bipiperidine-4′-carboxamide] | 97 | 60 | 23 | –
4 | NC(=O)C1(c2ccccc2)CCN(C(=O)c2cc(-c3ccc(Cl)cc3Cl)n(-c3ccc(Cl)cc3)c2CCO)CC1 [compound 14, 1-{[1-(4-chlorophenyl)-5-(2,4-dichlorophenyl)-2-(2-hydroxyethyl)-1H-pyrrol-3-yl]carbonyl}-4-phenylpiperidine-4-carboxamide] | 85 | 60 | 27 | –
